In US20240327463A1, “ANTIBACTERIAL PRODUCTS” (priority 2017, published 2024):
≈ marks a conversion by molar mass, not a printed value. Bridge positions count the residues as written; N and C are the ends. Square brackets hold non-standard residues; d marks the D form. Peptide text beside a SMILES is read from it. ξ: configuration not given here. dNMeF = CN[C@H](Cc1ccccc1)C(=O)O; Ile(3ξ) = CCC(C)[C@H](N)C(=O)O; Chg = N[C@H](C(=O)O)C1CCCCC1; Nva = CCC[C@H](N)C(=O)O

test system: MRSA ATCC 33591; details: ATCC 33591
Procedure: For MIC testing all peptides were dissolved in DMSO (according to the method of L. L. Ling, et al., Nature 2015, 517, 455-459). Bacteria were grown on Mueller Hinton broth (oxoid). All incubations were at 37° C. Dilutions were carried out using Mueller Hinton. 100 μl of autoclaved Mueller Hinton broth was added to wells 2-12 on a 96-well plate. 200 μl of the peptide was added to well one at a concentration of 512 μg/ml. 100 μl of peptide in well one was taken up and pipetted into well two. The mixture was then mixed via pipetting before 100 μl was taken up and pipetted into well three. This process was repeated up to well 11. […] This was repeated three times. The 96-well plates were then incubated for 24 hours. The MIC was determined to be the lowest concentration at which there was no growth visible.

For CC[C@@H](C)[C@@H](NC(=O)[C@@H](CCC(N)=O)NC(=O)[C@H](CO)NC(=O)[C@@H](NC(=O)[C@@H](Cc1ccccc1)NC)[C@@H](C)CC)C(=O)N[C@H](C(=O)N[C@@H](CO)C(=O)N[C@H]1C(=O)N[C@@H](C)C(=O)N[C@@H](C2CCCCC2)C(=O)N[C@@H]([C@@H](C)CC)C(=O)O[C@H]1C)[C@@H](C)CC [Compound 36, Chg10-teixobactin], which “MIC (MRSA)” value is on record?
Its value is 0.25 µg/mL (≈ 0.204 µM).

For CC[C@@H](C)[C@@H](NC(=O)[C@@H](C)NC(=O)[C@H](CO)NC(=O)[C@@H](NC(=O)[C@@H](Cc1ccccc1)NC)[C@@H](C)CC)C(=O)N[C@H](C(=O)N[C@@H](CO)C(=O)N[C@H]1C(=O)N[C@@H](C)C(=O)N[C@@H](CCCNC(=N)N)C(=O)N[C@@H]([C@@H](C)CC)C(=O)O[C@H]1C)[C@@H](C)CC [Compound 10] (H-[dNMeF]IS[dA][dI]IS[dT]ARI; ester 8-C), which “MIC (MRSA*)” value is on record?
The value was 2 to 4 µg/mL.

Which “MIC (MRSA)” value does the source give for CC[C@@H](C)[C@@H](NC(=O)[C@@H](CCCNC(=N)N)NC(=O)[C@H](CCCNC(=N)N)NC(=O)[C@@H](NC(=O)[C@@H](Cc1ccccc1)NC)[C@@H](C)CC)C(=O)N[C@H](C(=O)N[C@@H](CO)C(=O)N[C@H]1C(=O)N[C@@H](CCCNC(=N)N)C(=O)N[C@@H](C2CCCCC2)C(=O)N[C@@H]([C@@H](C)CC)C(=O)O[C@H]1C)[C@@H](C)CC [Compound 43, Arg3-D-Arg4-Arg9-Chg10-teixobactin] (H-[dNMeF]IR[dR][dI]IS[dT]R[Chg]I; ester 8-C) here?
Its value is 64 µg/mL (≈ 45.4 µM).

CC[C@@H](C)[C@@H](NC(=O)[C@@H](CCC(N)=O)NC(=O)[C@H](CCCNC(=N)N)NC(=O)[C@@H](NC(=O)[C@@H](Cc1ccccc1)NC)[C@@H](C)CC)C(=O)N[C@H](C(=O)N[C@@H](CO)C(=O)N[C@H]1C(=O)N[C@@H](CCCNC(=N)N)C(=O)N[C@@H](C2CCCCC2)C(=O)N[C@@H]([C@@H](C)CC)C(=O)O[C@H]1C)[C@@H](C)CC [Compound 41, Arg3-Arg9-Chg10-teixobactin] (H-[dNMeF]IR[dQ][dI]IS[dT]R[Chg]I; ester 8-C) was tested. Which “MIC (MRSA)” value did it give?
The value was 0.5 µg/mL (≈ 0.362 µM).

How did the “MIC (MRSA*)” value turn out when CC[C@@H](C)[C@@H](NC(=O)[C@@H](CCC(N)=O)NC(=O)[C@H](CO)NC(=O)[C@@H](NC(=O)[C@@H](Cc1ccccc1)NC)[C@@H](C)CC)C(=O)N[C@H](C(=O)N[C@@H](C)C(=O)N[C@H]1C(=O)N[C@@H](C)C(=O)N[C@@H](CCCNC(=N)N)C(=O)N[C@@H]([C@@H](C)CC)C(=O)O[C@H]1C)[C@@H](C)CC [Compound 13, reference compound] (H-[dNMeF]IS[dQ][dI]IA[dT]ARI; ester 8-C) was run?
Its value is 16 to 32 µg/mL.

How did the “MIC (MRSA)” value turn out when CCC[C@@H]1NC(=O)[C@H](C)NC(=O)[C@H](NC(=O)[C@H](CO)NC(=O)[C@@H](NC(=O)[C@H](NC(=O)[C@@H](CCCNC(=N)N)NC(=O)[C@H](CCCNC(=N)N)NC(=O)[C@@H](NC(=O)[C@@H](Cc2ccccc2)NC)[C@@H](C)CC)[C@H](C)CC)[C@@H](C)CC)[C@H](C)OC(=O)[C@H]([C@@H](C)CC)NC1=O [Compound 48, Arg3-D-Arg4-Nva10-teixobactin] (H-[dNMeF]IR[dR][dI]IS[dT]A[Nva]I; ester 8-C) was run?
Its value is >64 µg/mL.

With CCC[C@@H]1NC(=O)[C@H](CCCNC(=N)N)NC(=O)[C@H](NC(=O)[C@H](CO)NC(=O)[C@@H](NC(=O)[C@H](NC(=O)[C@@H](CCC(N)=O)NC(=O)[C@H](CO)NC(=O)[C@@H](NC(=O)[C@@H](Cc2ccccc2)NC)[C@@H](C)CC)[C@H](C)CC)[C@@H](C)CC)[C@H](C)OC(=O)[C@H]([C@@H](C)CC)NC1=O [Compound 47, Arg9-Nva10-teixobactin] (H-[dNMeF]IS[dQ][dI]IS[dT]R[Nva]I; ester 8-C) as the molecule, how does the “MIC (MRSA)” value read?
Its value is 0.5 µg/mL (≈ 0.393 µM).

Which “MIC (MRSA*)” value does the source give for CC[C@@H](C)[C@@H](NC(=O)[C@@H](CCC(N)=O)NC(=O)[C@H](CO)NC(=O)[C@@H](NC(=O)[C@@H](Cc1ccccc1)NC)[C@@H](C)CC)C(=O)N[C@H](C(=O)N[C@@H](CO)C(=O)N[C@H]1C(=O)N[C@@H](C)C(=O)N[C@H](C)C(=O)N[C@@H]([C@@H](C)CC)C(=O)O[C@H]1C)[C@@H](C)CC [Compound 15] here?
The value was 32 µg/mL (≈ 27.6 µM).

CC[C@@H](C)[C@@H](NC(=O)[C@@H](CCC(N)=O)NC(=O)[C@H](CO)NC(=O)[C@@H](NC(=O)[C@@H](C)NC(C)=O)[C@@H](C)CC)C(=O)N[C@H](C(=O)N[C@@H](CO)C(=O)N[C@H]1C(=O)N[C@@H](C)C(=O)N[C@@H](CCCNC(=N)N)C(=O)N[C@@H]([C@@H](C)CC)C(=O)O[C@H]1C)[C@@H](C)CC [Compound 7] was tested. Which “MIC (MRSA*)” value did it give?
The value was >128 µg/mL.

CC[C@@H](C)[C@@H](NC(=O)[C@@H](CCCNC(=N)N)NC(=O)[C@H](CO)NC(=O)[C@@H](NC(=O)[C@@H](Cc1ccccc1)NC)[C@@H](C)CC)C(=O)N[C@H](C(=O)N[C@@H](CO)C(=O)N[C@H]1C(=O)N[C@@H](C)C(=O)N[C@@H](C)C(=O)N[C@@H]([C@@H](C)CC)C(=O)O[C@H]1C)[C@@H](C)CC [Compound 53, D-Arg4-Ala10-teixobactin] was tested. Which “MIC (MRSA)” value did it give?
Its value is 4 µg/mL (≈ 3.37 µM).

CCC[C@@H]1NC(=O)[C@H](C)NC(=O)[C@H](NC(=O)[C@H](CO)NC(=O)[C@@H](NC(=O)[C@H](NC(=O)[C@@H](CCCNC(=N)N)NC(=O)[C@H](CO)NC(=O)[C@@H](NC(=O)[C@@H](Cc2ccccc2)NC)[C@@H](C)CC)[C@H](C)CC)[C@@H](C)CC)[C@H](C)OC(=O)[C@H]([C@@H](C)CC)NC1=O [Compound 46, D-Arg4-Nva10-teixobactin] was tested. Which “MIC (MRSA)” value did it give?
Its value is 0.25 µg/mL (≈ 0.206 µM).

Which “MIC (MRSA)” value does the source give for CCC(C)[C@@H]1NC(=O)[C@H](C)NC(=O)[C@H](NC(=O)[C@H](CO)NC(=O)[C@@H](NC(=O)[C@H](NC(=O)[C@@H](CCCNC(=N)N)NC(=O)[C@H](CCCNC(=N)N)NC(=O)[C@@H](NC(=O)[C@@H](Cc2ccccc2)NC)[C@@H](C)CC)[C@H](C)CC)[C@@H](C)CC)[C@H](C)OC(=O)[C@H]([C@@H](C)CC)NC1=O (stereo partly drawn) [Compound 35, Arg3-D-Arg4-Ile10-teixobactin] (H-[dNMeF]IR[dR][dI]IS[dT]A[Ile(3ξ)]I; ester 8-C) here?
The value was 0.5 µg/mL (≈ 0.385 µM).

Which “MIC (MRSA)” value does the source give for CCC[C@@H]1NC(=O)[C@H](C)NC(=O)[C@H](NC(=O)[C@H](CO)NC(=O)[C@@H](NC(=O)[C@H](NC(=O)[C@@H](CCC(N)=O)NC(=O)[C@H](CCCNC(=N)N)NC(=O)[C@@H](NC(=O)[C@@H](Cc2ccccc2)NC)[C@@H](C)CC)[C@H](C)CC)[C@@H](C)CC)[C@H](C)OC(=O)[C@H]([C@@H](C)CC)NC1=O [Compound 45, Arg3-Nva10-teixobactin] (H-[dNMeF]IR[dQ][dI]IS[dT]A[Nva]I; ester 8-C) here?
The value was 1 µg/mL (≈ 0.796 µM).

With CCC[C@@H]1NC(=O)[C@H](C)NC(=O)[C@H](NC(=O)[C@H](CO)NC(=O)[C@@H](NC(=O)[C@H](NC(=O)[C@@H](CCC(N)=O)NC(=O)[C@H](CO)NC(=O)[C@@H](NC(=O)[C@@H](Cc2ccccc2)NC)[C@@H](C)CC)[C@H](C)CC)[C@@H](C)CC)[C@H](C)OC(=O)[C@H]([C@@H](C)CC)NC1=O [Compound 44, Nva10-teixobactin] as the molecule, how does the “MIC (MRSA)” value read?
Its value is 0.5 µg/mL (≈ 0.421 µM).

For CC[C@@H](C)[C@@H](NC(=O)[C@@H](CCCNC(=N)N)NC(=O)[C@H](CO)NC(=O)[C@@H](NC(=O)[C@@H](Cc1ccccc1)NC)[C@@H](C)CC)C(=O)N[C@H](C(=O)N[C@@H](CO)C(=O)N[C@H]1C(=O)N[C@@H](C)C(=O)N[C@@H](Cc2ccccc2)C(=O)N[C@@H]([C@@H](C)CC)C(=O)O[C@H]1C)[C@@H](C)CC [Compound 52, D-Arg4-Phe10-teixobactin], which “MIC (MRSA)” value is on record?
Its value is 2 µg/mL (≈ 1.58 µM).

Which “MIC (MRSA)” value does the source give for CC[C@@H](C)[C@@H](NC(=O)[C@@H](CCCNC(=N)N)NC(=O)[C@H](CCCNC(=N)N)NC(=O)[C@@H](NC(=O)[C@@H](Cc1ccccc1)NC)[C@@H](C)CC)C(=O)N[C@H](C(=O)N[C@@H](CO)C(=O)N[C@H]1C(=O)N[C@@H](C)C(=O)N[C@@H](C2CCCCC2)C(=O)N[C@@H]([C@@H](C)CC)C(=O)O[C@H]1C)[C@@H](C)CC [Compound 40, Arg3-D-Arg4-Chg10-teixobactin] (H-[dNMeF]IR[dR][dI]IS[dT]A[Chg]I; ester 8-C) here?
The value was 1 µg/mL (≈ 0.755 µM).

CCC[C@@H]1NC(=O)[C@H](CCCNC(=N)N)NC(=O)[C@H](NC(=O)[C@H](CO)NC(=O)[C@@H](NC(=O)[C@H](NC(=O)[C@@H](CCC(N)=O)NC(=O)[C@H](CCCNC(=N)N)NC(=O)[C@@H](NC(=O)[C@@H](Cc2ccccc2)NC)[C@@H](C)CC)[C@H](C)CC)[C@@H](C)CC)[C@H](C)OC(=O)[C@H]([C@@H](C)CC)NC1=O [Compound 49, Arg3-Arg9-Nva10-teixobactin] (H-[dNMeF]IR[dQ][dI]IS[dT]R[Nva]I; ester 8-C) was tested. Which “MIC (MRSA)” value did it give?
The value was 0.5 µg/mL (≈ 0.373 µM).

For CC[C@@H](C)[C@@H](NC(=O)[C@@H](CCC(N)=O)NC(=O)[C@H](C)NC(=O)[C@@H](NC(=O)[C@@H](Cc1ccccc1)NC)[C@@H](C)CC)C(=O)N[C@H](C(=O)N[C@@H](CO)C(=O)N[C@H]1C(=O)N[C@@H](C)C(=O)N[C@@H](CCCNC(=N)N)C(=O)N[C@@H]([C@@H](C)CC)C(=O)O[C@H]1C)[C@@H](C)CC [Compound 9] (H-[dNMeF]IA[dQ][dI]IS[dT]ARI; ester 8-C), which “MIC (MRSA*)” value is on record?
The value was 1 to 2 µg/mL.

Which “MIC (MRSA)” value does the source give for CC[C@@H](C)[C@@H](NC(=O)[C@@H](CCCNC(=N)N)NC(=O)[C@H](CO)NC(=O)[C@@H](NC(=O)[C@@H](Cc1ccccc1)NC)[C@@H](C)CC)C(=O)N[C@H](C(=O)N[C@@H](CO)C(=O)N[C@H]1C(=O)N[C@@H](CCCNC(=N)N)C(=O)N[C@@H](C2CCCCC2)C(=O)N[C@@H]([C@@H](C)CC)C(=O)O[C@H]1C)[C@@H](C)CC [Compound 42, D-Arg4-Arg9-Chg10-teixobactin] (H-[dNMeF]IS[dR][dI]IS[dT]R[Chg]I; ester 8-C) here?
Its value is 0.5 µg/mL (≈ 0.373 µM).
